These results are taken from patent US20250188417A1, “CARDIOMYOCYTES AND COMPOSITIONS AND METHODS FOR PRODUCING THE SAME” (President and Fellows of Harvard College, priority 2021, published 2025).

Entries after “also recorded” stand apart in the source; their conditions may differ.

Assay [1] has as its system iPSC-CMs. Nature of the assay: qPCR of PPARGC1a mRNA in iPSC-CMs treated in 3D culture. In kind it is cell-based, human. Particulars: 200 μM for 3 days, FIG. 5. As to the method: (§1) The UCSD142i-86-1 cell line was used to generate preliminary data. UCSD142i-86-1 cells were differentiated into cardiomyocytes according to previously published protocols (9) adapted to three-dimensional culture in the laboratory. Two days after onset of beating (around day 9 of differentiation), cardiomyocytes were treated with vehicle (DMSO) or different concentrations of quercetin for different time periods. Cells were harvested for qPCR, western, or flow cytometry at different time points.
(In qPCR the cycle at which signal appears reflects the starting amount.)

The test system of assay [2] is iPSC-CMs. The assay can be described thus: Flow cytometry of marker expression and live cells in iPSC-CMs treated in 3D culture. In kind it is cell-based, human. As to the method: as §1
For orientation: In flow cytometry, cells or beads pass a laser one at a time.

For the next assay, the system named is senescent tumor cells. Particulars: literature reference; cited from earlier work.
The test system of assay [3] is BJRiPS-CMs. Nature of the assay: qPCR of sarcomere genes and ion channels after Torin1 treatment. In kind it is cell-based, human. As to the method:
FIG. 11A provides qPCR of selected sarcomere genes (MYH6, MYH7, TNNT2, TNNI3) iPSC-derived cardiomyocytes after treatment with Torin1 (10 nM, 50 nM, or 200 nM) or vehicle control (0.02% DMSO) for 7 days starting ˜2 days after onset of beating. n=3 per condition, *p<0.05, ****p<0.001 by two-way ANOVA with Tukey's multiple comparisons test, BJRiPS-CMs. FIG. 11B provides representative of western blot analysis of TNNT2 and TNNI3 after Torin1 treatment for 7 days starting ˜2 days after onset of beating, β-tubulin depicted as loading control, Gibco iPS-CMs. […] FIG. 11D provides representative image of MTF in diastole and systole, with schematic of MTF on side view in diastole and systole. […]
FIG. 13A provides qPCR of selected ion channels (KCNJ2, CACNA1c, RY2, ATP2a2, SCN5a, HCN4) of iPSC-derived cardiomyocytes after treatment with Torin1 (10 nM or 200 nM) or vehicle control (0.02% DMSO) for 7 days starting ˜2 days after onset of beating. n=3 per group, *p<0.05, ****p<0.001 by two-way ANOVA with Tukey's multiple comparisons test, BJRiPS line. FIG. 13B provides flow cytometry analysis of mean fluorescence intensity of Kir2.1 (encoded by KCNJ2) after Torin1 treatment for 7 days starting ˜2 days after onset of beating. n=3 per group, *p<0.01 by unpaired t-test, BJRiPS line. […]

The subject of assay [4] is BJRiPS-CMs. The assay can be described thus: Seahorse Mito Stress Test oxygen consumption rate. The following applies: Torin1 200 nM×7 days; normalized to baseline. In kind it is cell-based, human. The method, then:
FIG. 12A provides a profile of average oxygen consumption rate normalized to baseline versus time as evaluated by the Seahorse Mito Stress Test. Open circles=control (n=70 wells), closed squares=Torin1 (69 wells, 200 nM×7 days; BJRiPS-CMs replated into Seahorse plate for 24-48 hours prior to assay), data from two independent experiments combined. […] FIG. 12F provides qPCR of selected genes associated with fatty acid metabolism (PPARGC1a (PGC1α), CD36, SLC27A1 (FATP1), SLC27A6 (FATP6), and LPIN1) or glucose metabolism (GLUT1, GLUT4, PFK, and PYGM) of BJRiPS-CMs after treatment with Torin1 (10 nM, 50 nM, or 200 nM) or vehicle control (0.02% DMSO) for 7 days starting ˜2 days after onset of beating. *p<0.05, **p<0.01, ***p<0.001, ****p<0.0001 by two-way ANOVA with Tukey's multiple comparison's test, n=3 per group. DMSO, dimethylsulfoxide; FCCP, 2-[2-[4-(trifluoromethoxy)phenyl]hydrazinylidene]-propanedinitrile.

In assay [5] the test system is iPSC-derived cardiomyocytes (CMs). Nature of the assay: Quiescence, cell cycle and TNNT2+ flow cytometry after Torin1 treatment. In kind it is cell-based, human. As to the method:
FIG. 10A provides a schematic of a differentiation protocol, with Torin1 treatment performed for 7 days starting ˜2 days after onset of beating, unless otherwise noted. FIG. 10B provides a western analysis of phospho-S6 and phospho-Akt at baseline and 30 minutes, and 2, 4, 10, 24, and 48 hours after a single treatment of iPSC-derived CMs with Torin1 (200 nM), BJRiPS-CMs. […] Torin1 treatment started on day 9, approximately 2 days after onset of CM beating, BJRiPS-CMs, n=3 per group per time point. […] DMSO, dimethylsulfoxide; IWP-4, inhibitor of Wnt production-4; RI, ROCK (Rho-associated, coiled coil containing protein kinase) inhibitor (Y-27632); RPMI, Roswell Park Memorial Institute 1640 medium.

The subject of assay [6] is iPSC-derived cardiomyocytes. Nature of the assay: Muscular thin film (MTF) contractility. In kind it is cell-based, human. The following applies: Torin1 200 nM for 7 days; muscular thin films. The method, then:
(§2) FIG. 11A provides qPCR of selected sarcomere genes (MYH6, MYH7, TNNT2, TNNI3) iPSC-derived cardiomyocytes after treatment with Torin1 (10 nM, 50 nM, or 200 nM) or vehicle control (0.02% DMSO) for 7 days starting ˜2 days after onset of beating. n=3 per condition, *p<0.05, ****p<0.001 by two-way ANOVA with Tukey's multiple comparisons test, BJRiPS-CMs. FIG. 11B provides representative of western blot analysis of TNNT2 and TNNI3 after Torin1 treatment for 7 days starting ˜2 days after onset of beating, β-tubulin depicted as loading control, Gibco iPS-CMs. […] FIG. 11D provides representative image of MTF in diastole and systole, with schematic of MTF on side view in diastole and systole. FIG. 11E provides representative force versus time plot of muscular thin film (MTF) seeded with iPSC-derived cardiomyocytes treated with Torin1 (200 nM) or vehicle for 7 days starting ˜2 days after onset of beating, BJRiPS-CMs. […] FIG. 11G provides representative immunostained images showing cardiomyocytes treated with or without Torin1 (200 nM×7 days), blue=DAPI, green=alpha-actinin, yellow=F-actin, magenta=TNNT2, BJRiPS-CMs, scale bar=10 μm. […] DMSO, dimethylsulfoxide; TBP, TATA-binding protein.

Assay [7] relates to BJRiPS-CMs. The assay can be described thus: Mitochondrial polarization (MitoProbe JC-1). Particulars: Torin1 200 nM for 7 days. In kind it is cell-based, human.
For another assay, the system named is Gibco iPS-CM. The assay can be described thus: Western blot of p53 after Torin1 treatment. Particulars: Torin1 10, 50 or 200 nM for 7 days. In kind it is cell-based, human. The method, then: FIG. 14A provides representative western blot of p53, phospho-53, p21 (CDKN1a), GATA4, NKX2.5, and β-tubulin from Gibco iPS-CM lysates treated with 0 (DMSO), 10, 50, or 200 nM Torin1 for 7 days starting ˜2 days after onset of beating. Cells harvested on final day of treatment. FIG. 14B provides cell cycle analysis showing percentage of TNNT2+ BJRiPS-CMs in G0, G1 or S/G2/M phases after treatment with vehicle (DMSO, dimethylsulfoxide), pifithrin-α (10 μM) for 1 week, Torin1 (200 nM) for 7 days or simultaneous treatment with pifithrin-α (10 μM) and Torin1 (200 nM) for 7 days starting ˜2 days after onset of beating. n=3 per group, *p<0.05, **p<0.01, ***p<0.001, ****p<0.0001 by two-way ANOVA with Tukey's multiple comparisons test. FIG. 14C provides representative western blot of p53, TNNI3, p21, and β-tubulin from BJRiPS-derived cardiomyocyte lysates treated with control (DMSO), Torin1 (200 nM), pifithrin-α (10 PM) or Torin1 (200 nM)+pifithrin-α (10 μM) for 7 days beginning ˜2 days after onset of beating. Cells harvested on final day of treatment.

The subject of another assay is UCSD-CMs. Nature of the assay: FluoVolt action potential profile. In kind it is cell-based, human. The method, then: FIG. 13A provides qPCR of selected ion channels (KCNJ2, CACNA1c, RY2, ATP2a2, SCN5a, HCN4) of iPSC-derived cardiomyocytes after treatment with Torin1 (10 nM or 200 nM) or vehicle control (0.02% DMSO) for 7 days starting ˜2 days after onset of beating. n=3 per group, *p<0.05, ****p<0.001 by two-way ANOVA with Tukey's multiple comparisons test, BJRiPS line. FIG. 13B provides flow cytometry analysis of mean fluorescence intensity of Kir2.1 (encoded by KCNJ2) after Torin1 treatment for 7 days starting ˜2 days after onset of beating. n=3 per group, *p<0.01 by unpaired t-test, BJRiPS line. […] FIG. 13D provides representative images showing cell segmentation performed automatically by the CyteSeer software. Blue=Hoechst stain, Green=FluoVolt. […] CTD25 (25% duration of the calcium transient, or duration at 25% decline from maximum amplitude), CTD75 (75% duration of the calcium transient, or duration at 75% decline from maximum amplitude), T75-25 (time for voltage to decay from 75% to 25% of maximum). […] For Fluovolt data, control n=531 cells, Torin1 n=315 cells, analysis by unpaired t-test.

The subject of the next assay is PSC-CMs. Particulars: inhibition of mTOR signaling during late differentiation; previously suggested; cited from earlier work.
In assay [8] the test system is BJRiPS-CMs. Nature of the assay: Sarcomere length by immunostaining. In kind it is cell-based, human. The following applies: Torin1 200 nM×7 days versus control; unpaired t-test; FIG. 11H. The method, then: as §2
The mark [9] stands for this setting: treatment of iPSC-CMs in 3D culture.

As to `O=c1c(O)c(-c2ccc(O)c(O)c2)oc2cc(O)cc(O)c12` [quercetin], in the assay with iPSC-CMs [1], the “mRNA expression of PPARGC1a” value was “increases; also recorded: significantly increased”. The “percentage of live cells” value in the assay with iPSC-CMs [2] (200 μM, 2 or 5 day treatment, 3D culture, flow cytometry, FIG. 4A) is “decreases”. Further, the “percentage of TNNT2+ iPSC-CMs expressing Kir2.1” value in the assay on iPSC-CMs [2] (3D culture, flow cytometry, FIG. 2E / FIG. 3A) is reported as “increases”. Moreover, the “mean fluorescence intensity (MFI) of Kir2.1” value in the assay with iPSC-CMs [2] (3D culture, flow cytometry, FIG. 2F / FIG. 3B) is “increases”. Besides, in the assay on iPSC-CMs [2] (3D culture, flow cytometry, FIG. 2G / FIG. 3C), the “% of p53+ TNNT2+ iPSC-CMs” value was “increases”. Besides, the “mean fluorescence intensity of p53” value with iPSC-CMs [2] (3D culture, flow cytometry, FIG. 3D) was “increases”. In the assay on iPSC-CMs [2] (3D suspension culture, preliminary data), the iPSC-CM maturation entry is “can enhance”. The “percentage of TNNT2+ cells out of live cells (cardiomyocytes)” value in the assay on iPSC-CMs [2] (2 day treatment at 20 or 200 μM, 3D culture, flow cytometry, FIG. 4B) was “increases”. For the same compound, in the assay with iPSC-CMs [2] (setting [9]), the “expression of Kir2.1” value is “increases” and the “expression of p53” value is given as “increases”. For the same compound, the “apoptosis in senescent tumor cells” value in the assay with senescent tumor cells was “can induce apoptosis”.
As to `CCC(=O)N1CCN(c2ccc(-n3c(=O)ccc4cnc5ccc(-c6cnc7ccccc7c6)cc5c43)cc2C(F)(F)F)CC1` [Torin1], the “expression selected ion channels” value with BJRiPS-CMs [3] (Torin1 10 nM or 200 nM for 7 days) is “increases”. Further, the “expression of sarcomere genes (MYH6, MYH7, TNNT2, TNNI3)” value with BJRiPS-CMs [3] (Torin1 10, 50 or 200 nM for 7 days) is “increases”. For the same compound, the oxygen consumption rate entry in the assay with BJRiPS-CMs [4] is “increases”. In [5] (Torin1 for 7 days starting about 2 days after onset of beating), the cellular quiescence entry was “increases”. In assay [5] (flow cytometry, Gibco iPS-CMs, one-way ANOVA, FIG. 10D), the “percentage of TNNT2+ CMs out of live cell population” value is reported as “n.s”. In addition, the contractility entry in assay [6] was “enhances”. Also, in the assay with BJRiPS-CMs [7], the mitochondrial polarization result is “increases”. Further, the p53 expression result in the assay on Gibco iPS-CM is listed as “increases”. For the same compound, the “peak rise time of the action potential profile” value in the assay on UCSD-CMs (FluoVolt, FIG. 13F) is on record as “increases”. Further, the “downstroke velocity of the action potential profile” value in the assay on UCSD-CMs (FluoVolt, FIG. 13G) is listed as “increases”. In addition, the CTD25 time entry in the assay with UCSD-CMs (FluoVolt, versus control, unpaired t-test, FIG. 13H) is recorded as “n.s”. The “plateau phase of the action potential profile” value in the assay with UCSD-CMs (representative profile versus control, FIG. 13E) was “more prolonged”. In the assay with PSC-CMs, the cellular quiescence result is listed as “induces” and the maturation of cardiomyocytes entry was “enhances”. Moreover, the sarcomere length entry with BJRiPS-CMs [8] is recorded as “n.s”.
